# Experimental data taken from patent US20020147230A1, “Aminal Diones as potassium channel openers” (priority 2001, published 2002).
# Where two headings read alike, the source gives them in different places.
# Experiments:
# [1] = tested on: primary cultured guinea-pig urinary bladder (GPB) cells; test: Membrane hyperpolarization (MHP) assay, DiBAC(4)3 / FLIPR; type: cell-based; conditions: for EC50: membrane hyperpolarization in guinea-pig bladder cells
# Method: Compounds were evaluated for potassium channel opening activity using primary cultured guinea-pig urinary bladder (GPB) cells.
# For the preparation of urinary bladder smooth muscle cells, urinary bladders were removed from male guinea-pigs (Hartley, Charles River, Wilmington, Mass.) weighing 300-400 g and placed in ice-cold Ca^2+-free Krebs solution (composition, mM: KCl, 2.7; KH2PO4, 1.5; NaCl, 75; Na2HPO4, 9.6; Na2HPO4.7H2O, 8; MgSO4, 2; glucose, 5; HEPES, 10; pH 7.4). Cells were isolated by enzymatic dissociation as previously described with minor modifications (Klockner and Isenberg, Pflugers Arch. (1985), 405, 329-339), hereby incorporated by reference. The bladder was cut into small sections and incubated in 5 mL of the Kreb's solution containing 1 mg/mL collagenase (Sigma, St. Louis, Mont.) and 0.2 mg/mL pronase (Calbiochem, La Jolla, Calif.) with continuous stirring in a cell incubator for 30 minutes. The mixture was then centrifuged at 1300× g for 5 minutes, and the pellet resuspended in Dulbecco's PBS (GIBCO, Gaithersburg, Md.) and recentrifuged to remove residual enzyme. The cell pellet was resuspended in 5 mL growth media (composition: Dulbecco's modified Eagle's medium supplemented with 10% fetal bovine serum, 100 units/mL penicillin, 100 units/mL streptomycin and […] amphotericin B) and further dissociated by pipetting the suspension through a flame-polished Pasteur pipette and passing it through a polypropylene mesh membrane (Spectrum, Houston, Tex.). The cell density was adjusted to 100,000 cells/mL by resuspension in growth media. Cells were plated in clear-bottomed black 96-well plates (Packard) for membrane potential studies at a density of 20,000 cells/well and maintained in a cell incubator with 90% air:10% CO2 until confluent. Cells were confirmed to be of smooth muscle type by cytoskeletal staining using a monoclonal mouse anti human-α-smooth muscle actin (Biomeda, Foster City, Calif.).
# Functional activity at potassium channels was measured by evaluating changes in membrane potential using the bis-oxonol dye DiBAC(4)3 (Molecular Probes) in a 96-well cell-based kinetic assay system, Fluorescent Imaging Plate Reader (FLIPR) (K. S. Schroeder et al., J. Biomed. Screen., v. 1 pp. 7581 (1996)), hereby incorporated by reference. DiBAC(4)3 is an anionic potentiometric probe which partitions between cells and extracellular solution in a membrane potential-dependent manner. With increasing membrane potential (for example, K^+ depolarization), the probe further partitions into the cell; this is measured as an increase in fluorescence due to dye interaction with intracellular lipids and proteins. Conversely, decreasing membrane potential (hyperpolarization by potassium channel openers) evokes a decrease in fluorescence.
# Confluent guinea-pig urinary bladder cells cultured in black clear-bottomed 96-well plates were rinsed twice with […] assay buffer (composition, mM: HEPES, 20; NaCl, 120; KCl, 2; CaCl2, 2; MgCl2, 1; glucose, 5; pH 7.4 at 25° C.) containing 5 μM DiBAC(4)3 and incubated with […] of the buffer in a cell incubator for 30 minutes at 37° C. to ensure dye distribution across the membrane. After recording the baseline fluorescence for 5 minutes, the reference or test compounds, prepared at 10 times the concentration in the assay buffer, were added directly to the wells. Changes in fluorescence were monitored for an additional 25 minutes. Hyperpolarization responses were corrected for any background noise and were normalized to the response observed with 10 μM of the reference compound P1075 (assigned as 100%), a potent opener of smooth muscle KATP channels (Quast et al., Mol. Pharmacol., v. 43 pp. 474-481 (1993)).
# Routinely, five concentrations of P1075 or test compounds (log or half-log dilutions) were evaluated and the maximal steady-state hyperpolarization values (expressed as % relative to P1075) plotted as a function of concentration. […]
# [2] = tested on: tissue strips obtained from Landrace pig bladders; test: Functional potassium channel opening activity in isolated bladder strips (field-stimulated twitch); conditions: for EC50: amount causing 50% of the agent's maximal response, read-out: ED50 (the source's name)
# Method: Compounds were evaluated for functional potassium channel opening activity using tissue strips obtained from Landrace pig bladders.
# Landrace pig bladders were obtained from female Landrace pigs of 930 kg. Landrace pigs were euthanized with an intraperitoneal injection of pentobarbital solution, Somlethal®, J. A. Webster Inc., Sterling Mass. The entire bladder was removed and immediately placed into Krebs Ringer bicarbonate solution (composition, mM: NaCl, 120; NaHCO3, 20; dextrose, 11; KCl, 4.7; CaCl2, 2.5; MgSO4, 1.5; KH2PO4, 1.2; K2EDTA, 0.01, equilibrated with 5% CO2/95% O2pH 7.4 at 37° C.). Propranolol (0.004 mM) was included in all of the assays to block β-adrenoceptors. The trigonal and dome portions were discarded. Strips 3-5 mm wide and 20 mm long were prepared from the remaining tissue cut in a circular fashion. The mucosal layer was removed. One end was fixed to a stationary glass rod and the other to a Grass FT03 transducer at a basal preload of 1.0 gram. Two parallel platinum electrodes were included in the stationary glass rod to provide field stimulation of 0.05 Hz, 0.5 milli-seconds at 20 volts. This low frequency stimulation produced a stable twitch response of 100-500 centigrams. Tissues were allowed to equilibrate for at least 60 minutes and primed with 80 mM KCl. A control concentration response curve (cumulative) was generated for each tissue using the potassium channel opener P1075 as the control agonist. […] After a 60 minute rinsing period, a concentration response curve (cumulative) was generated for the test agonist in the same fashion as that used for the control agonist P1075. The maximal efficacy of each compound (expressed as % relative to P1075) is reported. The amount of agent necessary to cause 50% of the agent's maximal response (ED50) was calculated using “ALLFIT” (DeLean et al., Am. J. Physiol., 235, E97 (1980)), hereby incorporated by reference. Agonist potencies were also expressed as an index relative to P1075. The index was calculated by dividing the ED50 for P1075 by the ED50 for the test agonist in a given tissue. Each tissue was used for only one test agonist, and the indices obtained from each tissue were averaged to provide an average index of potency.
structure (smiles),measurement,setting,value
"C=CCC(C)(C)C(NC(=O)c1ccc(Cl)cc1)Nc1c(Nc2cccnc2)c(=O)c1=O (stereo not drawn) [Example 17, 4-chloro-N-(-1-{[3,4-dioxo-2-(3-pyridinylamino)-1-cyclobuten-1-yl]amino}-2,2-dimethyl-4-pentenyl)benzamide]",EC50,[1]; Cavia porcellus,0.18 µM
same,EC50,"[2]; Sus scrofa, Landrace pig bladder strips",5.8 µM
same,Emax,"[2]; Sus scrofa, maximal efficacy relative to P1075, Landrace pig bladder strips, field stimulation 0.05 Hz",92%
CC(C)(Cc1ccccc1)C(NC(=O)c1ccc(Cl)cc1)Nc1c(Nc2cccnc2)c(=O)c1=O (stereo not drawn) [Example 18],Maximal Response (% P1075),"[1]; maximal steady-state hyperpolarization, normalized to 10 μM P1075 (100%), GPB cells",97 % P1075
same,EC50,[1],0.51 µM
same,Index,"[2]; ED50 for P1075 divided by ED50 for the test agonist in a given tissue, averaged",0.055
same,EC50,[2]; Landrace pig bladder strips,17 µM
same,Efficacy (% P1075),"[2]; maximal efficacy relative to P1075, Landrace pig bladder strips, field stimulation 0.05 Hz",62 % P1075
"CC(C)(C)C(NC(=O)c1ccc(I)cc1)NS(=O)(=O)Nc1cccnc1 (stereo not drawn) [Example 34, N-(2,2-dimethyl-1-{[(3-pyridinylamino)sulfonyl]amino}propyl)-4iodobenzamide]",melting point,,177 to 178 °C
